System: patients with gout and a history of major cardiovascular diseases
Experiment: eGFR over time by average serum uric acid concentration, analysis of clinical trial data
Assay type: in vivo, human
Settings: for eGFR Mean (95% CI): allopurinol group
Protocol: In order to evaluate non-inferiority of febuxostat to allopurinol related to cardiovascular risk, a clinical trial was designed and proceeded.
A multicenter, randomized, double-blind non-inferiority trial was performed. The details of the clinical trial design have been published previously. An independent data and safety monitoring committee with access to unblinded data monitored the clinical trial. The statistical analysis for the data and the safety monitoring committee was performed by an independent statistical group (WebbWrites).
The patients were regarded as having a history of major cardiovascular diseases, if they had myocardial infarction, hospitalization for unstable angina, stroke, hospitalization for transient ischemic attack, peripheral vascular disease, or diabetes mellitus symptoms. All participants provided a prior informed consent form.
The patients were randomly assigned so that they received febuxostat or allopurinol administered once a day in a double-blind manner. The randomization was stratified according to the estimated creatinine clearance at baseline (patient group having an estimated creatinine clearance ≥60 ml per minute vs patient group having an estimated creatinine clearance ≥30 and <60 ml per minute).
The dose of allopurinol was modified according to a kidney function. The patients with the estimated creatinine clearance 60 ml or more per minute i) initially received allopurinol at a dose of 300 mg once a day, and the dose was increased in 100 mg increments monthly until the patient had the serum uric acid concentration of less than 6.0 mg per deciliter or the dosage of allopurinol was 600 mg once a day. The patient having the estimated creatinine clearance of 30 ml or more and less than 60 ml per minute initially received 200 mg of allopurinol, and then the dose was increased in 100 mg increments until the patient either had the serum uric acid concentration of less than 6.0 mg per deciliter or was receiving the allopurinol dose of 400 mg once daily.
The dose of febuxostat was not modified according to the kidney function. The patients who were randomly assigned to receive febuxostat initially received 40 mg once a daily, and continued to receive the same dosage if the serum uric acid concentration was less than 6.0 mg per deciliter after 2 weeks of the treatment. If the serum uric acid concentration was higher than 6.0 mg per deciliter at 2nd week visit, the dose of febuxostat was increased to 80 mg once daily for the remainder of the trial.
During the period, the administration of a double-blind and double-dummy trial medications was guided by an interactive voice-response system which was a procedure to prevent unblinding for the patients whose dose was not adjusted. After completing dose adjustment, the urate level was concealed from the investigators, and the treatment was managed throughout the trial using the interactive voice-response system.
Outpatient visits were conducted according to the following schedule: during screening and randomization, and at 2, 4, 6, 8, 10, 12, and 24 weeks after the randomization, and every 6 months during the subsequent years of the trial. The patients with reduced kidney function or, the patients aged 65 years or older at randomization were visited at 9 and 15 months for monitoring the serum chemical profile. If the patient agreed to be monitored, but would not return for study visit, telephone contact was made, but such method was not preferred or recommended.
In order to confirm the effect of allopurinol and febuxostat on the kidney disease, the data obtained in the clinical trial described above was analyzed.

Oc1ncnc2[nH]ncc12 [allopurinol]
eGFR Mean (95% CI) (DBP <80, Average UA ≥6, Week 2): 61.16 (59.19-63.13) ml/min/1.73 m^2 | eGFR Mean (95% CI) (No congestive cardiac failure history, Average UA <6, Baseline): 66.85 (65.82-67.88) ml/min/1.73 m^2 | eGFR Mean (95% CI) (No congestive cardiac failure history, Average UA <6, Month 3): 67.32 (66.24-68.40) ml/min/1.73 m^2 | eGFR Mean (95% CI) (No congestive cardiac failure history, Average UA <6, Month 12): 68.74 (67.63-69.86) ml/min/1.73 m^2 | eGFR Mean (95% CI) (No congestive cardiac failure history, Average UA <6, Month 18): 68.64 (67.39-69.88) ml/min/1.73 m^2 | eGFR Mean (95% CI) (No congestive cardiac failure history, Average UA <6, Month 24): 68.73 (67.42-70.03) ml/min/1.73 m^2 | eGFR Mean (95% CI) (No congestive cardiac failure history, Average UA <6, Month 30): 69.45 (68.01-70.89) ml/min/1.73 m^2 | eGFR Mean (95% CI) (No congestive cardiac failure history, Average UA <6, Month 36): 68.02 (66.49-69.55) ml/min/1.73 m^2 | eGFR Mean (95% CI) (No congestive cardiac failure history, Average UA <6, Month 42): 67.59 (65.93-69.25) ml/min/1.73 m^2 | eGFR Mean (95% CI) (No congestive cardiac failure history, Average UA <6, Month 48): 68.44 (66.56-70.31) ml/min/1.73 m^2 | eGFR Mean (95% CI) (No congestive cardiac failure history, Average UA <6, Month 54): 67.90 (65.79-70.00) ml/min/1.73 m^2 | eGFR Mean (95% CI) (No congestive cardiac failure history, Average UA <6, Month 60): 68.53 (66.05-71.01) ml/min/1.73 m^2 | eGFR Mean (95% CI) (No congestive cardiac failure history, Average UA <6, Week 2): 66.55 (65.48-67.62) ml/min/1.73 m^2 | eGFR Mean (95% CI) (No congestive cardiac failure history, Average UA ≥6, Baseline): 66.51 (64.92-68.09) ml/min/1.73 m^2 | eGFR Mean (95% CI) (No congestive cardiac failure history, Average UA ≥6, Month 12): 66.77 (65.07-68.46) ml/min/1.73 m^2 | eGFR Mean (95% CI) (No congestive cardiac failure history, Average UA ≥6, Month 18): 66.07 (64.15-67.99) ml/min/1.73 m^2 | eGFR Mean (95% CI) (No congestive cardiac failure history, Average UA ≥6, Month 24): 65.54 (63.37-67.72) ml/min/1.73 m^2 | eGFR Mean (95% CI) (No congestive cardiac failure history, Average UA ≥6, Month 30): 65.30 (62.89-67.70) ml/min/1.73 m^2 | eGFR Mean (95% CI) (No congestive cardiac failure history, Average UA ≥6, Month 36): 65.27 (62.40-68.13) ml/min/1.73 m^2 | eGFR Mean (95% CI) (No congestive cardiac failure history, Average UA ≥6, Month 42): 63.38 (60.35-66.41) ml/min/1.73 m^2 | eGFR Mean (95% CI) (No congestive cardiac failure history, Average UA ≥6, Month 48): 63.38 (59.80-66.95) ml/min/1.73 m^2 | eGFR Mean (95% CI) (No congestive cardiac failure history, Average UA ≥6, Month 54): 66.44 (62.69-70.18) ml/min/1.73 m^2 | eGFR Mean (95% CI) (No congestive cardiac failure history, Average UA ≥6, Month 60): 63.14 (59.01-67.28) ml/min/1.73 m^2 | eGFR Mean (95% CI) (No congestive cardiac failure history, Average UA ≥6, Week 2): 66.92 (65.28-68.56) ml/min/1.73 m^2 | eGFR Mean (95% CI) (SBP <130, Average UA <6, Baseline): 65.08 (63.67-66.50) ml/min/1.73 m^2 | eGFR Mean (95% CI) (SBP <130, Average UA <6, Month 3): 66.19 (64.73-67.66) ml/min/1.73 m^2 | eGFR Mean (95% CI) (SBP <130, Average UA <6, Month 6): 66.44 (64.96-67.92) ml/min/1.73 m^2 | eGFR Mean (95% CI) (SBP <130, Average UA <6, Month 12): 67.55 (66.04-69.06) ml/min/1.73 m^2 | eGFR Mean (95% CI) (SBP <130, Average UA <6, Month 18): 67.41 (65.73-69.08) ml/min/1.73 m^2 | eGFR Mean (95% CI) (SBP <130, Average UA <6, Month 24): 67.26 (65.46-69.07) ml/min/1.73 m^2 | eGFR Mean (95% CI) (SBP <130, Average UA <6, Month 30): 68.14 (66.20-70.08) ml/min/1.73 m^2 | eGFR Mean (95% CI) (SBP <130, Average UA <6, Month 36): 67.41 (65.30-69.51) ml/min/1.73 m^2 | eGFR Mean (95% CI) (SBP <130, Average UA <6, Month 42): 67.67 (65.45-69.89) ml/min/1.73 m^2 | eGFR Mean (95% CI) (SBP <130, Average UA <6, Month 48): 67.55 (64.98-70.13) ml/min/1.73 m^2 | eGFR Mean (95% CI) (SBP <130, Average UA <6, Month 54): 67.54 (64.81-70.27) ml/min/1.73 m^2 | eGFR Mean (95% CI) (SBP <130, Average UA <6, Month 60): 66.85 (63.63-70.06) ml/min/1.73 m^2 | eGFR Mean (95% CI) (SBP <130, Average UA <6, Week 2): 65.12 (63.70-66.55) ml/min/1.73 m^2 | eGFR Mean (95% CI) (SBP <130, Average UA ≥6, Baseline): 61.00 (58.76-63.25) ml/min/1.73 m^2 | eGFR Mean (95% CI) (SBP <130, Average UA ≥6, Month 3): 62.77 (60.42-65.12) ml/min/1.73 m^2 | eGFR Mean (95% CI) (SBP <130, Average UA ≥6, Month 6): 62.65 (60.33-64.97) ml/min/1.73 m^2 | eGFR Mean (95% CI) (SBP <130, Average UA ≥6, Month 12): 62.21 (59.86-64.55) ml/min/1.73 m^2 | eGFR Mean (95% CI) (SBP <130, Average UA ≥6, Month 18): 62.34 (59.64-65.04) ml/min/1.73 m^2 | eGFR Mean (95% CI) (SBP <130, Average UA ≥6, Month 24): 60.72 (57.61-63.83) ml/min/1.73 m^2 | eGFR Mean (95% CI) (SBP <130, Average UA ≥6, Month 30): 62.43 (59.06-65.81) ml/min/1.73 m^2 | eGFR Mean (95% CI) (SBP <130, Average UA ≥6, Month 36): 61.08 (57.19-64.97) ml/min/1.73 m^2 | eGFR Mean (95% CI) (SBP <130, Average UA ≥6, Month 42): 60.98 (56.66-65.31) ml/min/1.73 m^2 | eGFR Mean (95% CI) (SBP <130, Average UA ≥6, Month 48): 64.66 (59.55-69.76) ml/min/1.73 m^2 | eGFR Mean (95% CI) (SBP <130, Average UA ≥6, Month 54): 64.80 (59.14-70.46) ml/min/1.73 m^2 | eGFR Mean (95% CI) (SBP <130, Average UA ≥6, Month 60): 65.01 (58.65-71.37) ml/min/1.73 m^2 | eGFR Mean (95% CI) (SBP <130, Average UA ≥6, Week 2): 62.24 (60.01-64.47) ml/min/1.73 m^2 | prevention or treatment of chronic kidney disease when serum uric acid maintained below 6 (blood glucose ≥126 mg/dl, DBP ≤80 mm/Hg, SBP ≤130 mm/Hg, or no congestive cardiac failure): effectively prevented or treated

From patent US20250152592A1, “PHARMACEUTICAL COMPOSITION COMPRISING ALLOPURINOL, FEBUXOSTAT OR PHARMACEUTICALLY ACCEPTABLE SALT THEREOF FOR PREVENTION OR TREATMENT OF CHRONIC KIDNEY DISEASE IN SUBJECT HAVING HIGH SERUM URIC ACID CONCENTRATION” (Indream Healthcare Inc., priority 2022, published 2025)
